Measurements as given in patent publication US6919208B2, “Methods and compositions for enhancing the delivery of a nucleic acid to a cell” (The Children's Hospital of Philadelphia, priority 2000, dated 2005).
Read-outs that look alike come from different tables or passages of the source.

How the values were obtained:
A10 cells [1] = assay: p-EGFP-N3 (GFP) plasmid transfection of A10 cells on native type I collagen with cytochalasin D added after lipofection; assay type: cell-based, Rat; settings: 1 nanomolar
Protocol: A10 cells were grown on native type I collagen. […] Immediately after lipofection, cytochalasin D at a final concentration of 1 nanomolar was either added to cells for thirty minutes, added to cells for an overnight incubation or not added at all (control). The fluorescence of control cells, cells treated with cytochalasin D for thirty minutes, and cells treated with cytochalasin D for an overnight incubation (FIGS. 6A, 6B and 6C, respectively) was assessed. Bright field micrographs were also taken of the control cells, cells treated with cytochalasin D for thirty minutes, and cells treated with cytochalasin D for an overnight incubation (FIGS. 7A, 7B and 7C, respectively).

A10 cells [2] = test system: A10 cells
Protocol: A10 cells were grown on native type I collagen containing 0, 15 and 50 micrograms per milliliter of Tenascin C. The cells were transfected with p-EGFP-N3 (green fluorescent protein) plasmid DNA.

Row | Compound | transfection (GFP expression), time dependence (A10 cells [1]; added immediately after lipofection) | transfection relative to control cells (A10 cells [1]; overnight exposure) | transfection relative to control cells (A10 cells [1]; thirty minute exposure) | cell morphology (bright field micrograph) (A10 cells [2]) | transfection (GFP expression), dose dependence (A10 cells [2]; 0, 15 and 50 micrograms per milliliter in native type I collagen, 24 h after transfection) | transfection (GFP fluorescence) (A10 cells [2]; 15 micrograms per milliliter in native type I collagen, 24 h after transfection) | transfection (GFP fluorescence) (A10 cells [2]; 50 micrograms per milliliter in native type I collagen, 24 h after transfection)
1 | C=C1[C@@H](C)[C@H]2[C@H](Cc3ccccc3)NC(=O)[C@]23[C@H](OC(C)=O)/C=C/[C@@](C)(O)C(=O)[C@@H](C)C/C=C/[C@H]3[C@@H]1O [cytochalasin D] | time-dependent increase in transfection | notably higher amount of transfection | increased transfection | – | – | – | –
2 | Tenascin C: extracellular matrix protein abundantly expressed within remodeling tissues; added to native type I collagen | – | – | – | normal cell morphology | dose-dependent increase in transfection | increased transfection | highest degree of transfection
